Reference: patent publication US6497862B2, “Composition for inhibiting body odor and uses thereof” (Kabushiki Kaisha Hayashibara, priority 2000, dated 2002)

Assays:
[1] = Formation of volatile aldehydes from oleic acid by heating, GC analysis of head space gas (Experiment 1); conditions: oleic acid 100 mg + 100 mg test saccharide, heated at 105° C. for one hour; for Content in HSG, Hexanal: control 0.08; for Content in HSG, Butanal: control 1.04; for Content in HSG, Propanal: control 9.41
Experimental: (§1) One hundred milligrams of oleic acid as a fatty acid, 500 mg of cellulose powder, and 1.25 ml of 0.12 M phosphate buffer (pH 6.0) were placed in a 20-ml glass vial. To the glass vial were added 100 mg of either of crystalline trehalose hydrate, crystalline maltitol anhydride, crystalline sorbitol anhydride, crystalline sucrose anhydride, crystalline maltose anhydride, and crystalline neotrehalose hydride as test saccharides (throughout Experiments 1 to 6, these saccharides are designated as “trehalose”, “maltitol”, sorbitol”, “sucrose”, “maltose”, and “neotrehalose”, respectively), followed by sealing the glass vial with a butyl rubber. As a control system, there provided a glass vial, with no a test saccharide, which differed from the test glass vial on this point. These glass vials were heated at 105° C. for one hour, cooled to ambient temperature, and kept in an aluminum heat-block (abbreviated as “heat block, hereinafter”), which had been preheated to 80° C. After 5-minutes standing, two milliliters of a head space gas (abbreviated as “HSG”, hereinafter) were collected from each glass vial with a syringe.
(§2) The collected HSG was analyzed for content of volatile aldehydes on gas chromatography (abbreviated as “GC” hereinafter) using “GAS CHROMATOGRAPH GC-14A”, as a GC apparatus; “CAPILLARY COLUMN SUPELCO-WAX”, having 0.25 mm in inner diameter, 60 m in length, and 0.25 μm in thickness, commercialized by Supelco Inc., Tokyo, Japan, as a column for analysis; helium gas at a flow rate of one ml/min as a carrier gas, under temperature conditions of 250° C. for injecting a sample and of a column thermostatic bath temperature being kept at 80° C. for five minutes and then increased up to 240° C. at a rate of 5° C./min. As standard specimens, propanal, butanal, and hexanal as volatile aldehydes were used. Based on the peak area obtained from gas chromatography for the standard specimens and HSG samples, the content of respective volatile aldehydes in HSG was calculated.

[2] = Panel test of body-odor-like smell, oleic acid heated (Experiment 1); set-up: key: +++: the same or higher level of odor; ++: slightly lower level of odor; +: clearly lower level of odor than that of the control system; conditions: oleic acid heated at 105° C. for one hour; six panels, compared with control system
Experimental: as §1
(§3) Upon the HSG samples, the level of a body-odor-like smell was examined on a panel test consisting of six professional panels; the panels directly smelled the samples from each glass vial and judged the level of the smells for each samples with test saccharides based on the following four ranks, i.e., the same or higher level of odor (+++), slightly lower level of odor (++), clearly lower level of odor (+), and odorless (−) as compared with the control system. Summing up the data from the panels, the samples tested were totally evaluated.

[3] = Formation of 2-nonenal from linoleic acid by heating, GC of HSG (Experiment 2); conditions: linoleic acid + 100 mg test saccharide, heated at 105° C. for one hour; control 5.75
Experimental: as §1, §2
(§4) The content of 2-nonenal in HSG was measured by GC similarly as in Experiment 1 except that linoleic acid was used as a fatty acid and 2-nonenal, a volatile aldehyde, was used as a standard substance. The level of a body-odor-like smell, particularly with respect to KAREI-SHU, in each sample was evaluated by panel test in accordance with the method in Experiment 1.

[4] = Panel test of body-odor-like smell (KAREI-SHU), linoleic acid heated (Experiment 2); set-up: key: +++: the same or higher level of odor; ++: slightly lower level of odor; +: clearly lower level of odor than that of the control system; conditions: compared with control system
Text: as §3, §4

[5] = Formation of 2-nonenal from 9-hexadecanoic acid by heating, GC of HSG (Experiment 3); conditions: 9-hexadecanoic acid + 100 mg test saccharide, heated at 105° C. for one hour; control 25.7
Experimental: as §1, §2
as §4, with “9-hexadecanoic acid or palmitoleic” for “linoleic”, “of” for “of a”

[6] = Panel test of body-odor-like smell (KAREI-SHU), 9-hexadecanoic acid heated (Experiment 3); set-up: key: +++: the same or higher level of odor; ++: slightly lower level of odor; +: clearly lower level of odor than that of the control system; conditions: compared with control system
Text: as §3
as §4, with “9-hexadecanoic acid or palmitoleic” for “linoleic”, “of” for “of a”

Row | SMILES | Content in HSG, Hexanal [1] [µg/mL] | Content in HSG, Butanal [1] [µg/mL] | Content in HSG, Propanal [1] [µg/mL] | Evaluation of panel test [2] | Content of 2-nonenal in HSG [3] [µg/mL] | Evaluation of panel test [4] | Content of 2-nonenal in HSG [5] [µg/mL] | Evaluation of panel test [6]
1 | OC[C@@H](O)[C@@H](O)[C@H](O)[C@@H](O)CO [Sorbitol, sorbitol] | 0.06 | 1.06 | 8.31 | +++ | 5.12 | +++ | 23.6 | +++
2 | OC[C@H]1O[C@H](O[C@H]2[C@H](O)[C@@H](O)C(O)O[C@@H]2CO)[C@H](O)[C@@H](O)[C@@H]1O (mixture of isomers) [Maltose, maltose] | 0.07 | 1.38 | 9.09 | +++ | 4.60 | +++ | 24.2 | +++
3 | OC[C@H]1O[C@@H](O[C@H]2O[C@H](CO)[C@@H](O)[C@H](O)[C@H]2O)[C@H](O)[C@@H](O)[C@@H]1O [Neotrehalose, neotrehalose] | 0.08 | 1.25 | 8.89 | +++ | 5.64 | +++ | 25.7 | +++
